In patent US6287787A, “Dimeric oligopeptide mixture sets” (Torrey Pines Institute for Molecular Studies, priority 1993, dated 2001) one finds IC50 data, which are given here for one molecule.

Where a SMILES comes first, the peptide text is derived from it. Bridges are numbered along the chain shown (N, C = ends). Roman numbers before positions name the chains, in order. [ ]: non-standard residue; d: D form. Met(O) = CS(=O)CC[C@H](N)C(=O)O

This assay deals with T1, trypsin (bovine pancreas trypsin, Type I) (Bos taurus, UniProt P00760).
T1 construct: purchased Sigma Chemicals T 8003; host or cells: bovine pancreas
T1 sequence (P00760 24-246): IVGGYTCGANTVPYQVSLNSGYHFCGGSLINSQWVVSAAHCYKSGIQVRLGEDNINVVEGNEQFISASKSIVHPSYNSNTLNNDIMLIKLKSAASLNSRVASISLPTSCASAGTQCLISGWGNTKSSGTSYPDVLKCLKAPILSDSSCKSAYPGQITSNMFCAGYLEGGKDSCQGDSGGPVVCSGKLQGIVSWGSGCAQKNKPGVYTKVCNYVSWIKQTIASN
Nature of the assay: Competitive inhibition of tryptic hydrolysis of Nα-benzoyl-D,L-arginine-p-nitroanilide. The format is biochemical. As for the experimental part:
The inhibition observed was 55 percent at 5 mg/ml.
For these assays, 50 μl of dimeric oligopeptide mixture set solutions in water (0.5-5 mM) were added to 0.1 M Tris-HCl containing 0.025 M CaCl2, pH 7.8 (100 μl), to which were added 15 μl of trypsin (bovine pancreas trypsin, Type I; Sigma Chemicals T 8003; 0.05 mg/ml in 0.02 N HCl ). The solution was maintained for 30 minutes, and the above substrate (N^α -benzoyl-D,L-arginine-p-nitroanitide) was added (100 μl, 1 mg/ml in water). Absorbances at 405 nm were read using a Titertek multichannel photometer after another 30 minutes had elapsed and were expressed as a percentage of the control (absorbance of a solution without peptide).

Take `CC(=O)N[C@@H](CC[S+](C)[O-])C(=O)N[C@@H](CSSC[C@H](NC(=O)[C@H](CC[S+](C)[O-])NC(C)=O)C(=O)N[C@@H](Cc1c[nH]c2ccccc12)C(=O)N[C@@H](CCCNC(=N)N)C(N)=O)C(=O)N[C@@H](Cc1c[nH]c2ccccc12)C(=O)N[C@@H](CCCNC(=N)N)C(N)=O` (stereo partly shown) [SEQ ID NO:4] (I: Ac-[Met(O)]CWR-NH2 / II: Ac-[Met(O)]CWR-NH2; disulfide I:2-II:2): the 50% inhibitory concentration (IC50) was found to be 53 µM.

A word on the IC50: it is the midpoint of a concentration-inhibition curve. A higher IC50 goes with weaker potency.
